# Assay results from patent publication EP0189679A1, “Novel crystalline form of 1-benzhydryl-4-allylpiperazine dihydrochloride and method for the production thereof” (SO "PHARMACHIM", priority 1984, dated 1986).
# Tests used:
# [1] = Initial rate of dissolution of pressed discs in 0.1 N hydrochloric acid; type: physicochemical; settings: pressed disc 200 mg substance + 100 mg polyvinylchloride, 100 ml 0.1 N hydrochloric acid, 25°C, linear part between first and fifth minutes
# Method: In Table 4 which follows, there are compared the rates of dissolution of the. three crystalline forms. Investigations were carried out with pressed discs made up of 200 mg of the test substance and 100 mg of polyvinylchloride pressed at a pressure of 10 tonnes for 5 minutes in a plane around the disc using a pill making matrix with a diameter of 13 mm. The discs thus obtained are immersed by means of a special holding device in 100 ml of 0.1 N hydrochloric acid solution. Stirring was carried out by means of an electromagnetic agitator. The testing temperature employed was 25°C. The initial rates of dissolution are determined from the dissolution curves for the pressed discs, using the linear part between the first and fifth minutes. Comparison of data for the initial rate of dissolution of the three crystalline forms indicate that crystal form "A" has an initial rate of dissolution which is 3 to 4 times greater than that of the other forms.
# [2] = Solubility profile / rate of dissolution of pulverous specimens in water; type: physicochemical; settings: 25°C
# Method: The respective solubilities of the three crystalline modifications have also been studied. The rate of dissolution of pulverous specimens in water was determined in the following manner: a finely ground powder formed from the crystalline form under study in a quantity twice as great as necessary to produce a saturated solution in water is placed in a receptacle containing 100 ml of distilled water. The suspension is stirred using a magnetic agitator (600 r.p.m.) at a temperature of 25°C. At predetermined time intervals, samples are taken and, after filtering through a Milipor filter ([…]) they are diluted to the necessary volume for performing a quantitative determination. For this purpose, an absorption maximum at 250 nm is used.
# [3] = Stability study of the solid forms under ambient storage conditions in light-permeable glass jars; type: physicochemical; settings: ambient storage in glass jars permitting passage of light; over one year and after three years
# Excerpt: More exhaustive stability studies have been performed under ambient storage conditions in glass jars which permit the passage of light therethrough. […] The three crystalline forms are chemically and physically stable under normal storage conditions.
# [4] = Stability in aqueous solution (injectible compositions) of different crystalline forms; type: physicochemical; settings: dihydrochloride; for Content of active substance in the solution in %, In storing 1 year: stored 1 year; for Content of active substance in the solution in %, In storing 3 years: stored 3 years
# Excerpt: Table 3 indicates comparative data concerning the stability of injectible forms of pharmaceutical compositions containing either crystalline form "A" according to the present invention and form "B" (aligerone prepared according to the method described in the aforementioned references to Zikolova and Ninov).
# [5] = Hygroscopicity study of ground samples in a humidity chamber; type: physicochemical; settings: 90% humidity, 25°C, period of 30 days
# Method: Hygroscopicity studies have been carried out by placing samples of the three crystalline forms with the same particle size resulting from grinding of samples of the three crystalline forms in a vibratory mill. The studies take place in a chamber with 90% humidity and at a temperature of 25°C. At intervals, samples are taken in order to determine their water content and their crystalline structure by means of the methods described hereinabove. […] They are not hygroscopic and are physically stable under the test conditions..
# [6] = test system: blood vessels of the brain; settings: from Zikolova and Ninov and Drugs of the Future 1980, 5(1); cited from earlier work
# [7] = powder in 100 ml distilled water, 600 r.p.m.
structure (smiles),measurement,setting,value
"C=CCN1CCN(C(c2ccccc2)c2ccccc2)CC1.Cl.Cl.O.O [Crystalline hydrate, 1-benzhydryl-4-allylpiperazine dihydrochloride dihydrate, reference compound]",Initial rate of dissolving,[1],0.333 mg/mL/min
same,time until solubility reaches a constant value,[2]; [7],60 min
"C=CCN1CCN(C(c2ccccc2)c2ccccc2)CC1.Cl.Cl [Form ""A"", 1-benzhydryl-4-allyl-piperazine dihydrochloride]",chemical and physical stability on storage,[3],stable on storage under normal conditions
same,"Content of active substance in the solution in %, Initial concentration",[4]; listed as A,1.251%
same,"Content of active substance in the solution in %, In storing 1 year",[4]; listed as A,1.250%
same,"Content of active substance in the solution in %, In storing 3 years",[4]; listed as A,1.198%
same,hygroscopicity (water absorption),[5],non-hygroscopic
same,time to attain maximum solubility,[2]; [7],≤ 2 min
same,time until solubility reaches a constant value,"[2]; powder in 100 ml distilled water, 600 r.p.m., listed as form ""A"", dihydrochloride",10 min
same,solubility in comparison with the other crystalline forms,"[2]; water, compared with anhydrous form ""B"" and the crystalline hydrate",higher equilibrium solubility
"C=CCN1CCN(C(c2ccccc2)c2ccccc2)CC1.Cl.Cl [Form ""B"", 1-benzhydryl-4-allylpiperazine dihydrochloride]","Content of active substance in the solution in %, Initial concentration",[4]; listed as B,1.255%
same,"Content of active substance in the solution in %, In storing 1 year",[4]; listed as B,1.105%
same,"Content of active substance in the solution in %, In storing 3 years",[4]; listed as B,0.925%
same,Initial rate of dissolving,"[1]; listed as B, dihydrochloride",0.467 mg/mL/min
same,time until solubility reaches a constant value,"[2]; powder in 100 ml distilled water, 600 r.p.m., listed as form ""B"", dihydrochloride",60 min
"C=CCN1CCN(C(c2ccccc2)c2ccccc2)CC1.Cl.Cl [aligerone, 1-benzhydryl-4-allyl-piperazine dihydrochloride]",effect on blood circulation and oxygen concentration of the brain compared with cinnarizine,[6],stronger than that of cinnarizine
